# Source: patent US7772367B2, “C-terminal p53 palindromic peptide that induces apoptosis of cells with aberrant p53 and uses thereof” (The Trustees of Columbia University in the City of New York, priority 2004, dated 2010)
# Entries after “also recorded” stand apart in the source; their conditions may differ. Where a SMILES comes first, the peptide text is derived from it. The star is where a group is joined. Cbz = O=C(OCc1ccccc1)*; CH2F = FC*
# Assays:
# [1] = test system: engineered MDA-MB-468 human breast cancer cells; experiment: TUNEL assay with flow cytometry on engineered cells; type: cell-based; conditions: 2 μM inhibitor added 6 hours after doxycycline, 24 hr total
# Procedure: TUNEL assay on engineered MDA-MB-468 human breast cancer cells after 24 hours of exposure to 2 μg/ml Doxycycline.
# (§1) Furthermore, using a specific inhibitor for caspase 8 eliminated the death induced by the C-terminal p53 palindromic tetrapeptide expression. The cleavage of the DNA repair signal protein poly-adenosyl-ribose polymerase (PARP), a key indicator of apoptosis, was also observed with the C-terminal p53 palindromic tetramer expression (FIGS. 5 and 6). Finally, one of the later events to occur as cells are undergoing apoptosis is the endonuclease cleavage of chromatin DNA at the DNA linker site between nucleosomes. These DNA fragments can be end-labeled with fluorescent-dUTP with the use of terminal deoxynucleotidyl transferase. This technique, called TUNEL, is extremely sensitive for the detection of apoptosis. We used a commercial TUNEL assay (Medical & Biological Labs, Nagoya, Japan) with flow cytometry to examine these engineered cells. By this assay, 80% of the cells were killed with induction of the 4 repeat by doxycycline treatment (FIG. 7). Furthermore, by using a specific inhibitor for caspase 8, IETD-FMK ([…], Nagoya, Japan), death induced by the C-terminal p53 palindromic peptide expression (FIG. 7) was eliminated. All of these findings support an apoptotic mechanism of cell death by this peptide.
# [2] = test system: MDA-MB-468 human breast cancer cells; experiment: Propidium iodide staining / flow cytometry (sub-G1) of cells exposed to purified peptide; type: cell-based; conditions: 30 uM peptide, 6 hours
# Procedure: Effects of the C-Terminal p53 Palindromic Tetrapeptide on Cells in Culture. MDA-MB-468 human breast cancer cells were grown in culture and exposed for 6 hours with no peptide (control) or with 30 μM of either the single p53 C-terminal peptide fused to the Ant carrier (p53-Ant) or with the His tagged p53 palindromic tetrapeptide fused to the Ant carrier (4 Repeat). The DNA within the cells was then stained with propidium iodide and cell particles were assayed by flow cytometry. The percent within each graph represents the percent cell particles with less than a diploid amount of DNA, indicative of apoptotic cells (sub G1 population).
# In order to test the effect of the C-terminal p53 palindromic peptide cloned in E. Coli on cells in culture, the purified peptide was incubated at 30 μM with the human breast cancer cell line MDA-MB-468, and the effects compared to original monomer or single C-terminal peptide. Prior experiments had shown that exposure at this concentration was less than the IC50 for the original peptide. […] The DNA content was then quantified by flow cytometry in a FACSCalibur Cell Sorter (BD Bioscience, San Diego, Calif.). Cell cycle profiles were obtained, and the percentage of cells containing less than the diploid amount of DNA, indicative of cell undergoing cell death by apoptosis (sub-G1 peak), was quantified (FIG. 3).
# [3] = test system: p53 responsive proteins (Bax, Fas, caspase 8) and PARP in engineered MDA-MB-468 cells; experiment: Immunoblot of p53 responsive proteins and PARP cleavage after doxycycline induction; type: cell-based, human; conditions: for Bax expression: doxycycline 2 μg/ml, 12, 36 and 48 hours; for PARP cleavage product: after 4-repeat induction with doxycycline
# Procedure: Changes in the protein expression levels for the pro-apoptotic protein Bax, an active p53 responsive gene, induced by exposure to the tetracycline analog doxycycline (2 μg/ml) for 12, 36 and 48 hours. Engineered MDA-MB-468 cells were collected after the indicated exposure times and the total protein was extracted, an aliquot was run on a 12% acrylamide/SDS PAGE gel, and blotted onto nitrocellulose membranes. Antibodies specific for Bax, the 4-repeat (p53) and PARP were used to determine expression levels and α-tubulin was used as a loading control.
# Changes in the protein expression levels for the p53 responsive genes encoding Fas and caspase 8, 24 hours after the engineered MDA-MB-468 cells were exposed to the indicated concentrations of doxycycline. A PARP cleavage product is also shown. α-tubulin was used as a loading control.
# For the tetracycline-inducible peptide systems in MDA-MB-468 cells, cells were exposed to various concentrations of doxycycline for 24-48 hours and cell death measured by trypan blue exclusion (only dying cells are permeable to this dye) and propidium iodide staining (as above, in cells undergoing apoptosis DNA is cleaved so less PI can be bound resulting in accumulation of a sub-G1 peak of cells on flow cytometry). […] This implies a unique difference between the monomer and the 4 repeat.
# as §1
# MDA-MB-468 cells [4] = experiment: Trypan blue exclusion in tetracycline-inducible peptide-expressing cells; type: cell-based, human; conditions: doxycycline induction 24-48 hours
# From the text: The MDA-MB-468 breast cancer cell line which expresses high levels of mutant p53 (Arg to His substitution at amino acid 273, one of the two most common p53 mutations in human cancers) was chosen as the model system. The tetracycline-inducible RevTet-On System (Clontech Laboratories, Palo Alto, Calif.) was used for these studies. Stably expressed reverse tetracycline-controlled transactivator (rtTA), under the control of a CMV promoter, was first established in the MDA-MB-468 cell line. Initially immunoblots with an antibody against the transactivator were used to identify high expression; subsequently a luciferase reporter system was used to identify highly inducible clones. This assay incorporated a luciferase reporter (Promega, Madison, Wis.) with the inducible pREvTRE vector of the RevTet-On system to measure the ability of tetracycline to induce luciferase activity. […]
# (§2) For the tetracycline-inducible peptide systems in MDA-MB-468 cells, cells were exposed to various concentrations of doxycycline for 24-48 hours and cell death measured by trypan blue exclusion (only dying cells are permeable to this dye) and propidium iodide staining (as above, in cells undergoing apoptosis DNA is cleaved so less PI can be bound resulting in accumulation of a sub-G1 peak of cells on flow cytometry). […]
# MDA-MB-468 cells [5] = experiment: Propidium iodide staining / flow cytometry (sub-G1) in tetracycline-inducible peptide-expressing cells; type: cell-based, human
# Procedure: Effects of endogenous, regulated expression of the 4 repeat peptide on cell viability. MDA-MB-468 cells engineered to express the palindromic p53 4 repeat peptide under the control of a tetracycline responsive promoter were cultured without or with the addition of 2 μg/ml doxycycline, an analog of tetracycline, for 24, 48 or 72 hours. Cells were collected, fixed in ice cold 70% ethanol and the DNA was stained with propidium iodide. Cell cycle profiles were obtained by flow cytometry and the percent of sub-G1 cell particles, indicative of apoptosis, was quantified.
# The MDA-MB-468 breast cancer cell line which expresses high levels of mutant p53 (Arg to His substitution at amino acid 273, one of the two most common p53 mutations in human cancers) was chosen as the model system. The tetracycline-inducible RevTet-On System (Clontech Laboratories, Palo Alto, Calif.) was used for these studies. […]
# as §2
# 9L rat glioma = experiment: Survival of rats with intracerebral 9L glioma infused with adenovirus; type: in vivo, male fischer rats; conditions: concluding statement of rat glioma study
# Procedure: Survival analysis of male rats initially injected with 5 μl of 10^5 9L cells over […] (Tumor implantation) through a catheter stereotactically inserted into the right caudate nucleus. These rats were subsequently infused with 7-8 μl volumes per day over 3 hours a day for a total of 7 days in three groups as follows: 2 rats received phosphate buffered saline (PBS control) solution, 3 rats received Ad/vector control virus (Empty Virus Control), and 10 rats received Ad/4-rep-p53p adenovirus containing the tetrapeptide C-terminal p53 peptide.) The average survival time for the groups were: 20 days for the PBS control group, 27 days for the adenovirus vector control group (23.25 days for the combined control groups) and 37.25 days for the Ad/4-rep-p53p Adenovirus treated group. Thus, the treatment group infected with the adenovirus containing the C-terminal palindromic tetrapeptide experienced an 86% increase in survival compared to the PBS controls and a 60% increase in survival compared to the combined controls. […]
# For animal studies, 15 male fischer rats (age 12-14 weeks, 250 g) were anesthetized, and a 20 gauge plastic guide cannula was cemented into their skulls. […] The rats were monitored for an additional 44 days to determine differences in survival among groups.
# [6] = test system: normal cells including the pluripotent stem cells for granulocytes, erythrocytes, monocytes and macrophages; experiment: Effect on normal cells; type: cell-based
# MDA-MB-468 tumors = experiment: Inducible expression in MDA-MB-468 tumors in athymic nude mice; type: in vivo; conditions: doxycycline 0.5 mg/ml in drinking water; described in present tense
# Procedure: Four groups of ten animals each are used. Groups 1 and 2 are injected with one million MDA-MB-468 cells containing the inducibly expressible palindromic tetramer in 0.5 ml of basement membrane media. Groups 3 and 4 are injected with one million MDA-MB-468 cells containing the inducibly expressible GFP. The tumors are allowed to develop to a measurable state (approximately 2-3 weeks). Then groups 1 and 3 are given 0.5 mg/ml doxycycline in their drinking water, and groups 2 and 4 are given drinking water without doxycycline. Tumor sizes are measured daily. Animals are then euthanized and the tumors removed for analysis. Tumor sections are assayed for levels of apoptosis by DNA cleavage assay (TUNEL) and activation of caspases and cleavage of PARP.
Molecule,effect of caspase 8 inhibitor on death/TUNEL shift induced by palindromic peptide expression [1],"cell death (PI staining, sub-G1 population) [2] [%]",Bax expression [3],decrease in viability (trypan blue exclusion) (MDA-MB-468 cells [4]),"cell death (sub-G1 peak, propidium iodide staining) (MDA-MB-468 cells [5]; after doxycycline induction, stably expressing cell lines) [%]","apoptosis (propidium iodide staining and flow cytometry) (MDA-MB-468 cells [5]; doxycycline induction, FIG. 4)",Fas expression ([3]; 24 hours doxycycline),caspase 8 expression ([3]; 24 hours doxycycline),PARP cleavage product [3],PARP cleavage product ([3]; listed as C-terminal p53 palindromic tetramer),apoptosis of cancer cells in animals (9L rat glioma),effect on normal cells [6],apoptosis of cancer cells in animals (MDA-MB-468 tumors)
CC[C@H](C)[C@H](NC(=O)OCc1ccccc1)C(=O)N[C@@H](CCC(=O)OC)C(=O)N[C@H](C(=O)N[C@@H](CC(=O)OC)C(=O)CF)[C@@H](C)O [IETD-FMK] (Cbz-IE(OMe)TD(OMe)-CH2F),no shift occurs; also recorded: eliminated,,,,,,,,,,,,
"CSCC[C@H](NC(=O)[C@H](CCCCN)NC(=O)[C@H](Cc1c[nH]c2ccccc12)NC(=O)[C@H](CCCCN)NC(=O)[C@H](CCCCN)NC(=O)[C@H](CCCCN)NC(=O)[C@H](CCCCN)NC(=O)[C@H](Cc1c[nH]cn1)NC(=O)[C@H](CCCNC(=N)N)NC(=O)[C@H](CO)NC(=O)[C@@H](NC(=O)[C@H](CO)NC(=O)[C@H](CCC(N)=O)NC(=O)CNC(=O)[C@H](CCCCN)NC(=O)[C@H](CCCCN)NC(=O)[C@H](CO)NC(=O)[C@H](CCCCN)NC(=O)[C@H](CC(C)C)NC(=O)[C@H](Cc1c[nH]cn1)NC(=O)[C@H](CO)NC(=O)[C@H](CO)NC(=O)[C@H](Cc1c[nH]cn1)NC(=O)[C@H](C)NC(=O)[C@H](CCCNC(=N)N)NC(=O)[C@H](CO)NC(=O)CN)[C@@H](C)O)C(=O)N[C@@H](CCCNC(=N)N)C(=O)N[C@@H](CCCNC(=N)N)C(=O)N[C@@H](CC(N)=O)C(=O)N[C@@H](CCC(N)=O)C(=O)N[C@@H](Cc1ccccc1)C(=O)N[C@@H](Cc1c[nH]c2ccccc12)C(=O)N[C@H](C(=O)N[C@@H](CCCCN)C(=O)N[C@H](C(=O)N[C@@H](CCC(N)=O)C(=O)N[C@@H](CCCNC(=N)N)C(=O)NCC(=O)O)C(C)C)C(C)C [p53 C-terminal peptide (single repeat), reference compound] (H-GSRAHSSHLKSKKGQSTSRHKKKKWKMRRNQFWVKVQRG-OH; N-terminus and C-terminus assumed)",,23,did not,,,,,,,,,,
"p53 palindromic tetramer: C-terminal p53 palindromic tetrapeptide (four aa 353-393 segments, glycine-linked) expressed in cells from inducible or viral construct",,,increase in the expression,greater than 80%,43,greater than 40%,increase in the expression,increase in the expression,observed even 12 hours after,observed,found to induce apoptosis,no to minimal effect,found to induce apoptosis
